Patent US20250134895A1, “METHODS AND COMPOSITIONS FOR TREATING ALPHA-SYNUCLEIN-MEDIATED NEURODEGENERATION” (UNIVERSITY HEALTH NETWORK, priority 2021, published 2025)

What was measured:
[1] = target: T1, α-synuclein oligomers (Homo sapiens, UniProt P37840); test: Venus YFP protein-fragment complementation assay in rat primary cortical neurons; format: cell-based; conditions: 72 hours; for YFP fluorescence compared with vehicle control: 10 μM
[2] = test system: full-length Gaussia princeps luciferase; test: Activity of full-length Gaussia luciferase alone in H4 cells; format: cell-based
Protocol: (§1) For controls in this assay, vehicle (i.e., DMSO), rapamycin, and bafilomycin A were used. Rapamycin, or sirolimus, is a small molecule that activates autophagy by inhibiting mTOR (mammalian target of rapamycin). […] To test this possibility, cells expressing α-synuclein were treated with each of the compounds and a cell permeable, resazurin-based assay was used to test for cell viability.
(§2) H4 neuroglioma cells (ATCC, HTB-148) were maintained in Dulbecco's Modified Eagle Medium plus high glucose, L-glutamine, and sodium pyruvate (ThermoFisher, 11995-065) with 10% heat-inactivated fetal bovine serum (ThermoFisher, 16140071) and 1% antibiotic-antimycotic cocktail (ThermoFisher, 15240062) at 37° C. and 5% CO2. DNA expression constructs encoding for full-length human α-synuclein fused to the N-terminal fragment of Gaussia princeps luciferase (syn-luc1), full-length human α-synuclein fused to the C-terminal fragment of Gaussia princeps luciferase (syn-luc2), and full-length Gaussia princeps luciferase were kindly provided by Dr. Pamela McLean, Mayo Clinic Jacksonville.^33 Cells were transiently co-transfected with syn-luc1 and syn-luc2 or transfected with luciferase alone using Superfect transfection reagent (Qiagen, 301305) according to the manufacturer's instructions. Twenty-four hours after transfection, cells were plated on a 96-well microplate at 60,000 cells per well. Twenty-four hours after plating, cells were treated with drugs or vehicle control. Following 24 hours of treatment, cells were washed 1 time with PBS and bioluminescence was measured using an automated CLARIOstar plate reader (Mandel, 430-0505). Cell permeable, native coelenterazine was used as the Gaussia luciferase substrate. Lyophilized coelenterazine (Nanolight, 303-500) was reconstituted in NanoFuel Solvent (Nanolight, 399-1), then diluted in PBS to 16.6 μg/mL, and dispensed per well to a final concentration of 20 μM). The bioluminescent signal generated by the luciferase enzyme was assessed at 470 nm over 5 seconds. Raw luminescence units were normalized to the DMSO vehicle control of each 96-well microplate. To assess cell viability, H4 neuroglioma cells were prepared and treated as described above and, 1 hour prior to viability analysis, cells were treated with PrestoBlue viability reagent (ThermoFisher, A13261) according to the manufacturer's instructions. Fluorescence was automatically measured using a CLARIOstar plate reader (Mandel, 430-0505) and then normalized to the fluorescence measure of the DMSO vehicle control.

[3] = target: T1, α-synuclein oligomers; test: Gaussia luciferase protein-fragment complementation cell assay of α-synuclein oligomers in H4 neuroglioma cells; format: cell-based; design: full-length human α-synuclein fused to the N-terminal fragment of Gaussia princeps luciferase (syn-luc1); full-length human α-synuclein fused to the C-terminal fragment of Gaussia princeps luciferase (syn-luc2); expressed in transfected cells; host or cells: H4 neuroglioma cells (ATCC, HTB-148), transient co-transfection; conditions: for α-syn oligomers as measured by luciferase activity / decrease in luciferase activity compared with vehicle alone: 1 μM or 10 μM; for α-syn oligomers as measured by luciferase activity: Example 9; for decrease in luciferase activity compared with vehicle alone: 24 hours of treatment
Protocol: as §1, §2
We used a bioluminescent protein-fragment complementation assay in which human H4 neuroglioma cells co-express human α-synuclein tagged with the N- or C-terminal half of Gaussia princeps luciferase (FIG. 12). Reconstitution of a complete and active luciferase molecule from the fragments occurs upon α-synuclein oligomerization, and so luminescence provides an indirect measure of α-synuclein oligomer levels. H4 neuroglioma cells were co-transfected with α-syn luciferase fragments, and constructs were plated into a 96-well plate and treated with either 1 μM or 10 μM of each of the 19 drug compounds.

[4] = test system: H4 neuroglioma cells; conditions: for reduced cell survival: human, 24 h
Protocol: as §1, §2

[5] = test system: transgenic A30P α-synuclein C. elegans; test: Coiler score and locomotion of C. elegans expressing A30P α-synuclein in dopaminergic neurons; format: in vivo, Caenorhabditis elegans; conditions: for reduction in coiling compared with vehicle alone (decrease): 100 μM of drug, 3 days on drug plates
Protocol: Using high-resolution, multi-worm tracking with custom image processing, methods were developed for semi-automated and blinded scoring of circularity for a population of simultaneously recorded animals (n=10 per recording). A coiler score was determined for the population tested by first calculating the circularity value for each animal in each frame of video and then calculating the proportion of circularity values >0.6. […] The coiler phenotype is an abnormal motor behaviour previously reported for several unc C. elegans strains with mutations affecting neuronal function.
Animals were synchronized by isolating eggs using alkaline hypochlorite treatment and hatching overnight. Larvae were plated onto NGM agar plates with OP50 and grown for 4 days before recording locomotion. For individual C. elegans recordings, a single adult animal was randomly picked, washed for 1 to 2 minutes in M9 buffer, and then transferred to a fresh NGM plate without food for imaging. Video images were acquired (2 frames per second) for up to 6 minutes using a sCMOS camera (pco.edge, PCO) mounted on a stereomicroscope (Olympus MVX10 MacroView) controlled using the μManager software.^55 A total of 40 individual animals were imaged for each strain. For C. elegans population recordings, ten adult animals were randomly removed using an eyelash pick, washed for 1 minute in M9 buffer, and then transferred to a fresh NGM plate without food, with a ring of copper sulfate solution (150 mM) around the area of recording (a chemorepellent to keep the animals in the recording frame). Exploratory locomotion was recorded using a CCD camera (GX1920, Allied Vision) which was attached to a dissecting stereomicroscope (Leica M165C, 1.0× PlanApo lens). A Labview program captured video (2 frames per second) at 1936×1456 resolution. Using ImageJ, the displacement, perimeter, and area of each animal was calculated, from which a circularity value was computed using the following formula: circularity=4π(A/P^2), where A is the area of the animal's body and P is the perimeter of the animal's body (both expressed in arbitrary pixel units). […] Using MATLAB (Mathworks), various behavioural metrics including the coiler score were calculated, which is the percentage of frames with a circularity value >0.6. Speed was automatically computed from the ImageJ based WrmTrk plugin as the distance travelled by each animal (in pixels) over the amount of time that it was tracked (in seconds).56 Average speed was determined by calculating the weighted average of each tracked animal's speed within a single population of animals. On the day of the recording for dopamine or raclopride treatment, adult animals were washed for 1 minute in M9 buffer, treated in a solution containing either drug for 1 minute, and then placed onto fresh NGM plates without food, with a copper sulfate solution ring around the area of recording. […] Drug plates were prepared by adding each drug to LB medium with OP50 before spreading onto fresh NGM plates. The solvent used to dissolve each drug was used as vehicle control for the drug treatment experiments (M9 buffer for dopamine, distilled water for raclopride, DMSO for all other drugs).
After 72 hours of drug treatment, animals were randomly picked, washed, and recorded. A total of ten worms were recorded per population, and twelve populations were recorded for each of the four treatment groups. Locomotion was recorded for each population over a total of 1800 frames over three minutes. The animal's movement speed, area, and perimeter were automatically analyzed as previously described. Coiler score was calculated automatically using a ratio of the animal's area to perimeter, where a higher coiler score would represent a greater degree of α-synuclein-induced dopaminergic neuron dysfunction in vivo.

[6] = test system: control GFP C. elegans; test: Coiler score and locomotion of control GFP C. elegans; format: in vivo, Caenorhabditis elegans; conditions: 1 mM, animals not expressing α-synuclein
Protocol: Animals were synchronized by isolating eggs using alkaline hypochlorite treatment and hatching overnight. Larvae were plated onto NGM agar plates with OP50 and grown for 4 days before recording locomotion. For individual C. elegans recordings, a single adult animal was randomly picked, washed for 1 to 2 minutes in M9 buffer, and then transferred to a fresh NGM plate without food for imaging. Video images were acquired (2 frames per second) for up to 6 minutes using a sCMOS camera (pco.edge, PCO) mounted on a stereomicroscope (Olympus MVX10 MacroView) controlled using the μManager software.^55 A total of 40 individual animals were imaged for each strain. For C. elegans population recordings, ten adult animals were randomly removed using an eyelash pick, washed for 1 minute in M9 buffer, and then transferred to a fresh NGM plate without food, with a ring of copper sulfate solution (150 mM) around the area of recording (a chemorepellent to keep the animals in the recording frame). Exploratory locomotion was recorded using a CCD camera (GX1920, Allied Vision) which was attached to a dissecting stereomicroscope (Leica M165C, 1.0× PlanApo lens). […] Using ImageJ, the displacement, perimeter, and area of each animal was calculated, from which a circularity value was computed using the following formula: circularity=4π(A/P^2), where A is the area of the animal's body and P is the perimeter of the animal's body (both expressed in arbitrary pixel units). […] Using MATLAB (Mathworks), various behavioural metrics including the coiler score were calculated, which is the percentage of frames with a circularity value >0.6. Speed was automatically computed from the ImageJ based WrmTrk plugin as the distance travelled by each animal (in pixels) over the amount of time that it was tracked (in seconds).56 Average speed was determined by calculating the weighted average of each tracked animal's speed within a single population of animals. […]
C. elegans were grown and maintained as previously described (Examples 1-6). […] After 72 hours of drug treatment, animals were randomly picked, washed, and recorded. […]

Compound: CCCC(=O)Nc1ccc(OCC(O)CNC(C)C)c(C(C)=O)c1 (centres unmarked) [Acebutolol]
- YFP fluorescence compared with vehicle control [1]: No significant differences
- changes in the activity of full-length Gaussia luciferase alone ([2]; 10 μM, FIG. 14): No statistically significant changes
- α-syn oligomers as measured by luciferase activity [3]: significant decrease

Compound: CC(=O)Nc1ccc(O)cc1 [Acetaminophen]
- changes in viability [4]: No statistically significant changes
- changes in the activity of full-length Gaussia luciferase alone ([2]; Example 5, FIG. 5c): No statistically significant changes
- reduction in coiling compared with vehicle alone (decrease) [5]: 32%
- decrease in luciferase activity compared with vehicle alone [3]: 14%

Compound: CO/C1=C\C(C)=C\[C@@H](C)[C@@H](O)[C@@H](C)C/C(C)=C/C=C/[C@H](OC)[C@@H]([C@@H](C)[C@@H](O)[C@H](C)[C@@]2(O)C[C@@H](O)[C@H](C)[C@@H](C(C)C)O2)OC1=O [Bafilomycin A1, bafilomycin A1]
- change in α-synuclein oligomer levels (active controls) ([3]; rapamycin 2 μM, bafilomycin A1 50 nM): increase

Compound: CN(C)CCCOc1nn(Cc2ccccc2)c2ccccc12 [Benzydamine]
- α-syn oligomers as measured by luciferase activity [3]: significant decrease

Compound: Cn1c(=O)c2c(ncn2C)n(C)c1=O [Caffeine]
- changes in the activity of full-length Gaussia luciferase alone ([2]; Example 5, FIG. 5c): No statistically significant changes
- reduction in coiling compared with vehicle alone (decrease) [5]: 37%
- decrease in luciferase activity compared with vehicle alone [3]: 16%

Compound: Oc1c(I)cc(Cl)c2cccnc12 [Clioquinol]
- α-syn oligomers as measured by luciferase activity [3]: significant decrease

Compound: NCCc1ccc(O)c(O)c1 [Dopamine, dopamine]
- coiling with exogenous dopamine ([5]; increasing concentrations, 1 minute treatment): decreased with treatment in a dose-dependent manner

Compound: COc1cc([C@@H]2c3cc4c(cc3[C@@H](O[C@@H]3O[C@@H]5CO[C@@H](C)O[C@H]5[C@H](O)[C@H]3O)[C@H]3COC(=O)[C@H]23)OCO4)cc(OC)c1O [Etoposide]
- reduced cell survival [4]: > 15%
- decrease in luciferase activity compared with vehicle alone [3]: 30%

Compound: Nc1ccn([C@@H]2CS[C@H](CO)O2)c(=O)n1 [Lamivudine]
- YFP fluorescence compared with vehicle control [1]: No significant differences
- changes in the activity of full-length Gaussia luciferase alone ([2]; 10 μM, FIG. 14): No statistically significant changes
- α-syn oligomers as measured by luciferase activity [3]: significant decrease

Compound: Sc1ncnc2nc[nH]c12 [Mercaptopurine]
- changes in viability [4]: No statistically significant changes
- changes in the activity of full-length Gaussia luciferase alone ([2]; Example 5, FIG. 5c): No statistically significant changes
- effect on coiling / coiler score ([5]; 100 μM, 72 hr, vs DMSO vehicle): no effect
- decrease in luciferase activity compared with vehicle alone [3]: 17%

Compound: NC(=O)C[S+]([O-])C(c1ccccc1)c1ccccc1 (centres unmarked) [Modafinil]
- reduced cell viability (decrease) ([4]; 1-20 μM, Example 9): 32%
- concentration with significant loss in cell viability ([4]; drugs 1-20 μM, FIG. 13): < 5 µM
- α-syn oligomers as measured by luciferase activity [3]: significant decrease

Compound: CN1C(C(=O)Nc2ccccn2)=C(O)c2ccccc2S1(=O)=O [Piroxicam]
- reduced cell survival [4]: > 15%
- decrease in luciferase activity compared with vehicle alone [3]: 19%

Compound: CCN1CCC[C@H]1CNC(=O)c1c(O)c(Cl)cc(Cl)c1OC [Raclopride, raclopride]
- coiling after D2 receptor blockade [6]: recapitulated the coiling behaviour

Compound: CO[C@H]1C[C@@H]2CC[C@@H](C)[C@@](O)(O2)C(=O)C(=O)N2CCCC[C@H]2C(=O)O[C@H]([C@H](C)C[C@@H]2CC[C@@H](O)[C@H](OC)C2)CC(=O)[C@H](C)/C=C(\C)[C@@H](O)[C@@H](OC)C(=O)[C@H](C)C[C@H](C)/C=C/C=C/C=C/1C [Rapamycin]
- decrease in fluorescence compared with vehicle alone ([1]; losartan 100 μM, rapamycin 50 nM, rifabutin 20 μM): 36%
- changes in viability [4]: No statistically significant changes
- reduction in coiling compared with vehicle alone (decrease) [5]: 30%

Compound: Cn1c(=O)c2[nH]cnc2n(C)c1=O [Theophylline]
- decrease in luciferase activity compared with vehicle alone [3]: 8%

Compound: CC[C@]1(O)C[C@H]2CN(CCc3c([nH]c4ccccc34)[C@@](C(=O)OC)(c3cc4c(cc3OC)N(C=O)[C@H]3[C@@](O)(C(=O)OC)[C@H](OC(C)=O)[C@]5(CC)C=CCN6CC[C@]43[C@@H]65)C2)C1 [Vincristine]
- reduced cell survival [4]: > 15%
- decrease in luciferase activity compared with vehicle alone [3]: 33%
